Source: ChEMBL document CHEMBL1151589, “Synthesis and inhibitory activity of optically active 2-benzyl-3-mercaptopropanoic acid against carboxypeptidase A” (Bioorg Med Chem Lett, 1993)

Legend:
[1] = target: T1, Mast cell carboxypeptidase A (Homo sapiens, UniProt P15088); test: Compound was tested for inhibitory activity against carboxypeptidase A; Not active
T1 sequence (P15088 whole entry): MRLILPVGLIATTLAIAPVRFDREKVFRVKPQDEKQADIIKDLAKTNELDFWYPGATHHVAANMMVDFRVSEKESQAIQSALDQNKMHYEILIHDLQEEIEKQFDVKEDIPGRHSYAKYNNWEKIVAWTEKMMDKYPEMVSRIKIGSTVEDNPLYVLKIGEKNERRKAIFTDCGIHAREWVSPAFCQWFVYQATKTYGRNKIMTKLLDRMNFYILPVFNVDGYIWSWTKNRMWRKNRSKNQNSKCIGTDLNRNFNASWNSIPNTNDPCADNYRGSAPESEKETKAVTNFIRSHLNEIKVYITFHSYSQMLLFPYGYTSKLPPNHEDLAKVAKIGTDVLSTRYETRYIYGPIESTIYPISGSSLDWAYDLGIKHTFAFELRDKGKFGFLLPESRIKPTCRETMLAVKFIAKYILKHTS

[2] = Compound was tested for inhibitory activity against Carboxypeptidase A

Ki [1] | Ki [2] | SMILES
Not Active | – | O=C(O)[C@H](CS)Cc1ccccc1
– | 11 µM | O=C(O)C(CS)Cc1ccccc1 (racemic)
